# Reference: ChEMBL document CHEMBL1201862, “PubChem BioAssay data set” (2004)
#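 These data come from cells grown in 96-well plates and exposed to compound for 48 hours at five concentrations. The concentration for 50% growth inhibition is given as GI50.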 Active and inactive are the calls of the source. Rule as the data show it: active = GI50 up to about 1.1 µM and inactive = higher.
# Assays:
# Assay in all cases: inhibition of tumour cell growth, NCI panel, 48 h
# [1] = system: 786-0
# [2] = system: A498
# [3] = system: A549
# [4] = system: ACHN
# [5] = system: BT-549
# [6] = system: CAKI-1
# [7] = system: COLO 205
# [8] = system: DU-145
# [9] = system: EKVX
# [10] = system: HCT-116
# [11] = system: HCT-15
# [12] = system: HL-60
# [13] = system: HOP-62
# [14] = system: HOP-92
# [15] = system: HT-29
# [16] = system: Hs-578T
# [17] = system: IGROV-1
# [18] = system: K562
# [19] = system: KM12
# [20] = system: LOX IMVI
# [21] = system: M14
# [22] = system: MCF7
# [23] = system: MDA-MB-231
# [24] = system: MDA-N
# [25] = system: MOLT-4
# [26] = system: Malme-3M
# [27] = system: NCI-H226
# [28] = system: NCI-H23
# [29] = system: NCI-H460
# [30] = system: NCI-H522
# [31] = system: NCI/ADR-RES
# [32] = system: OVCAR-3
# [33] = system: OVCAR-4
# [34] = system: OVCAR-5
# [35] = system: OVCAR-8
# [36] = system: PC-3
# [37] = system: RPMI-8226
# [38] = system: RXF 393
# [39] = system: SF-268
# [40] = system: SF-295
# [41] = system: SF-539
# [42] = system: SK-MEL-28
# [43] = system: SK-MEL-2
# [44] = system: SK-MEL-5
# [45] = system: SK-OV-3
# [46] = system: SN12C
# [47] = system: SNB-19
# [48] = system: SR
# [49] = system: SW-620
# [50] = system: T47D
# [51] = system: TK-10
# [52] = system: U-251
# [53] = system: UACC-257
# [54] = system: UACC-62
# [55] = system: UO-31
smiles,measurement,setting,value
NC(C(=O)O)C(N)C(=O)O (stereo not given),GI50,[1],> 100 µM (inactive)
same,GI50,[2],> 100 µM (inactive)
same,GI50,[3],> 100 µM (inactive)
same,GI50,[4],> 100 µM (inactive)
same,GI50,[5],> 100 µM (inactive)
same,GI50,[6],> 100 µM (inactive)
same,GI50,[7],> 100 µM (inactive)
same,GI50,[8],> 100 µM (inactive)
same,GI50,[9],> 100 µM (inactive)
same,GI50,[10],> 100 µM (inactive)
same,GI50,[11],> 100 µM
same,GI50,[12],> 100 µM (inactive)
same,GI50,[13],> 100 µM (inactive)
same,GI50,[14],> 100 µM (inactive)
same,GI50,[15],> 100 µM (inactive)
same,GI50,[16],> 100 µM (inactive)
same,GI50,[17],> 100 µM (inactive)
same,GI50,[18],> 100 µM (inactive)
same,GI50,[19],> 100 µM (inactive)
same,GI50,[20],> 100 µM (inactive)
same,GI50,[21],> 100 µM (inactive)
same,GI50,[22],> 100 µM (inactive)
same,GI50,[23],> 100 µM (inactive)
same,GI50,[24],> 100 µM (inactive)
same,GI50,[25],> 100 µM (inactive)
same,GI50,[26],> 100 µM (inactive)
same,GI50,[27],> 100 µM (inactive)
same,GI50,[28],> 100 µM (inactive)
same,GI50,[29],> 100 µM (inactive)
same,GI50,[30],> 100 µM (inactive)
same,GI50,[31],> 100 µM (inactive)
same,GI50,[32],> 100 µM (inactive)
same,GI50,[33],> 100 µM (inactive)
same,GI50,[34],> 100 µM (inactive)
same,GI50,[35],> 100 µM (inactive)
same,GI50,[36],> 100 µM (inactive)
same,GI50,[37],> 100 µM (inactive)
same,GI50,[38],> 100 µM (inactive)
same,GI50,[39],> 100 µM (inactive)
same,GI50,[40],> 100 µM (inactive)
same,GI50,[41],> 100 µM (inactive)
same,GI50,[42],> 100 µM (inactive)
same,GI50,[43],> 100 µM (inactive)
same,GI50,[44],> 100 µM (inactive)
same,GI50,[45],> 100 µM (inactive)
same,GI50,[46],> 100 µM (inactive)
same,GI50,[47],> 100 µM (inactive)
same,GI50,[48],> 100 µM (inactive)
same,GI50,[49],> 100 µM (inactive)
same,GI50,[50],> 100 µM (inactive)
same,GI50,[51],> 100 µM (inactive)
same,GI50,[52],> 100 µM (inactive)
same,GI50,[53],> 100 µM (inactive)
same,GI50,[54],> 100 µM (inactive)
same,GI50,[55],> 100 µM (inactive)
